Converted amounts (≈) assume the structure as drawn.

The subject of data set [1] is Candida tropicalis (ATCC 1369). The data set is described as follows: Antifungal MIC by broth dilution. The format is cell-based. The conditions noted are these: read-out: MIC values, Ct.
The test system of data set [2] is Klebsiella pneumoniae ATCC 10031. Nature of the data set: MIC by broth microdilution method. It counts as cell-based. The conditions noted are these: Gram-negative; 37°, 18 h.

Regarding `Cc1ccc(C)n1-c1ccc(-c2nnc(-c3cccc([N+](=O)[O-])c3)[nH]2)cc1` [Compound 4e, 3-(4-(2,5-Dimethyl-1H-pyrrol-1-yl)phenyl)-5-(3-nitrophenyl)-4H-1,2,4-triazole], in data set [1], the MIC came to 31.2 µg/mL (≈ 87 µM).

Regarding `Cc1ccc(C)n1-c1ccc(-c2nnc(-c3ccc(O)cc3)[nH]2)cc1` [Compound 4g, 4-(5-(4-(2,5-Dimethyl-1H-pyrrol-1-yl)phenyl)-4H-1,2,4-triazol-3-yl) phenol], the MIC in data set [1] amounted to 31.2 µg/mL (≈ 94.6 µM).

Turning to `Cc1ccc(C)n1-c1ccc(C(=O)NNC=O)cc1` [Compound 5, 4-(2,5-dimethyl-1H-pyrrol-1-yl)-N’-formylbenzohydrazide], the “MIC values, Kp” value in data set [2] amounted to 31.25 µg/mL (≈ 121 µM).

For `Cc1ccc(C)n1-c1ccc(-c2nnc(-c3ccccc3[N+](=O)[O-])[nH]2)cc1` [Compound 4f, 3-(4-(2,5-Dimethyl-1H-pyrrol-1-yl)phenyl)-5-(2-nitrophenyl)-4H-1,2,4-triazole], the MIC in data set [1] came to 31.2 µg/mL (≈ 87 µM).

(Values after paper PMC3783749 (Indian Journal of Pharmaceutical Sciences, 2013).)
